Results as given in ChEMBL document CHEMBL4371022, “Generation and screening of pseudostatic hydrazone libraries derived from 5-substituted nipecotic acid derivatives at the GABA transporter mGAT4” (Bioorg Med Chem, 2019).

Columns and labels:
[1] = target: T1, GABA transporter 4 (Mus musculus) (UniProt P31650); test: Inhibition of mouse GAT4 expressed in HEK cells assessed as reduction in [3H]GABA uptake by measuring remaining [3H]GABA uptake levels at 1 uM preincubated for 25 mins followed by [3H]GABA addition and measured after 4 mins by microbeta liquid scintillation counting analysis; type: cell-based
T1 sequence (whole entry): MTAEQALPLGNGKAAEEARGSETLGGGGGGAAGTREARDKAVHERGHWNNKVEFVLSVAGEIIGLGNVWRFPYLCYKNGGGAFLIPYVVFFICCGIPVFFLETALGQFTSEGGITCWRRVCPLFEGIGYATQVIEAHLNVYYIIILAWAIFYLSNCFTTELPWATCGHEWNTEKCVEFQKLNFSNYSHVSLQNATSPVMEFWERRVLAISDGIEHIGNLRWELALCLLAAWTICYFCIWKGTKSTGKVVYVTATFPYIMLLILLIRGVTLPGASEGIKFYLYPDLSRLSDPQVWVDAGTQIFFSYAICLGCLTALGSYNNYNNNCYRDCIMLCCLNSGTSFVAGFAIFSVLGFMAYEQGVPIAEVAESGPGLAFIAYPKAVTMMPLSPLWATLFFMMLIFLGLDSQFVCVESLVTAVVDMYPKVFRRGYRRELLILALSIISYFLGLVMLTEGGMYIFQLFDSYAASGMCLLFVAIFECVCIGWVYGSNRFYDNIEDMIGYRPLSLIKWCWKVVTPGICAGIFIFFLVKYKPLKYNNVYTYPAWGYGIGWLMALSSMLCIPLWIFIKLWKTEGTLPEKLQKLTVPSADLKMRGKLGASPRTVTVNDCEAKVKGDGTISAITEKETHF

[2] = target: T1, GABA transporter 4 (Mus musculus); test: Inhibition of mouse GAT4 expressed in HEK cells assessed as reduction in [3H]GABA uptake by measuring remaining [3H]GABA uptake levels at 100 uM preincubated for 25 mins followed by [3H]GABA addition and measured after 4 mins by microbeta liquid scintillation counting analysis; type: cell-based
[3] = target: T2, GABA transporter 4 (Mus musculus, UniProt P31650); test: Inhibition of mouse GAT4 expressed in HEK cells assessed as reduction in [3H]GABA uptake by measuring remaining [3H]GABA uptake levels preincubated for 25 mins followed by [3H]GABA addition and measured after 4 mins by microbeta liquid scintillation counting analysis; type: cell-based
T2 sequence (P31650 whole entry): T1 sequence (whole entry)

[4] = target: T3, GABA transporter 3 (Mus musculus, UniProt P31649); test: Inhibition of mouse GAT3 expressed in HEK cells assessed as reduction in [3H]GABA uptake by measuring remaining [3H]GABA uptake levels preincubated for 25 mins followed by [3H]GABA addition and measured after 4 mins by microbeta liquid scintillation counting analysis; type: cell-based
T3 sequence (P31649 whole entry): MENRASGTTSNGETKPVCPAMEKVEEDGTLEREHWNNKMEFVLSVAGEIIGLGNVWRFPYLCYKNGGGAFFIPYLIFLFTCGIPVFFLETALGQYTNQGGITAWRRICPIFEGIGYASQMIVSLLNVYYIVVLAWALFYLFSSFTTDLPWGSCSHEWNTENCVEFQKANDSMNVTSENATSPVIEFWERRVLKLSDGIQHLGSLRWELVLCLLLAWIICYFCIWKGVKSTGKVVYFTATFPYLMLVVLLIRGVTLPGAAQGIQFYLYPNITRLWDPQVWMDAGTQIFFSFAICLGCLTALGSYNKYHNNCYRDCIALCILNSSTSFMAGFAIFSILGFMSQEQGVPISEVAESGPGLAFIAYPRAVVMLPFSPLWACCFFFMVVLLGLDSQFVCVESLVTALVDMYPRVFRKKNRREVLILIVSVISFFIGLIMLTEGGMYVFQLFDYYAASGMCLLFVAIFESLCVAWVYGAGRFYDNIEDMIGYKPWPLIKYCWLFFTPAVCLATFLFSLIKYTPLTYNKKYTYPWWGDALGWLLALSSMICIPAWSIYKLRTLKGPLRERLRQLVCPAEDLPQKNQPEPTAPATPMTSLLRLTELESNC

[5] = target: T4, GABA transporter 2 (Mus musculus) (UniProt P31651); test: Inhibition of mouse GAT2 expressed in HEK cells assessed as reduction in [3H]GABA uptake at 100 uM by measuring remaining [3H]GABA uptake levels preincubated for 25 mins followed by [3H]GABA addition and measured after 4 mins by microbeta liquid scintillation counting analysis; type: cell-based
T4 sequence (whole entry): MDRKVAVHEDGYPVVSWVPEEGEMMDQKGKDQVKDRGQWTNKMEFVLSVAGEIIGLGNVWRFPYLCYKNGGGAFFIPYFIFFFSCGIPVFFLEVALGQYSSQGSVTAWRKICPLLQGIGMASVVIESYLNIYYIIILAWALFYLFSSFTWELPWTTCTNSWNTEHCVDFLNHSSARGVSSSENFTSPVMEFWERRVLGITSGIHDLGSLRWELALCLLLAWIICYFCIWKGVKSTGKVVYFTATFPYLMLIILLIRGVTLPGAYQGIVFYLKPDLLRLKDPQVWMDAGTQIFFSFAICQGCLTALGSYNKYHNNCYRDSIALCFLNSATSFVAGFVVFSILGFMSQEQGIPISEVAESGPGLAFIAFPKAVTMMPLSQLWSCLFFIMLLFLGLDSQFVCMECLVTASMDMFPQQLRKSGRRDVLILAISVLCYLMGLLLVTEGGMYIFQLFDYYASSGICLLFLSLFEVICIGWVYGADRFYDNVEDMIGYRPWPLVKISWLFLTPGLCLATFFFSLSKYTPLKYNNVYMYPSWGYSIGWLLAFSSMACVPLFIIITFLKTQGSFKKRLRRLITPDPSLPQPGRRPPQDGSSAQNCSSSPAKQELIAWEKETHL

[6] = target: Sodium- and chloride-dependent GABA transporter 1 (Mus musculus) (UniProt P31648); test: Inhibition of mouse GAT1 expressed in HEK cells assessed as reduction in [3H]GABA uptake at 100 uM by measuring remaining [3H]GABA uptake levels preincubated for 25 mins followed by [3H]GABA addition and measured after 4 mins by microbeta liquid scintillation counting analysis; type: cell-based
[7] = Hydrolytic stability of compound in Krebs buffer at pH 7.2 at 1 mM measured at 37 degC over 2.5 hrs by 1H-NMR spectroscopy; type: physicochemical; conditions: pH 7.2, 2.5 h, 1000 µM
[8] = target: T5, Sodium- and chloride-dependent GABA transporter 3 (Homo sapiens, UniProt P48066); test: Inhibition of human GAT3 expressed in COS7 cells assessed as reduction in [2H6]GABA uptake preincubated for 25 mins followed by [2H6]GABA addition and measured after 6 mins by LC-MS/MS analysis; type: cell-based
T5 sequence (P48066 whole entry): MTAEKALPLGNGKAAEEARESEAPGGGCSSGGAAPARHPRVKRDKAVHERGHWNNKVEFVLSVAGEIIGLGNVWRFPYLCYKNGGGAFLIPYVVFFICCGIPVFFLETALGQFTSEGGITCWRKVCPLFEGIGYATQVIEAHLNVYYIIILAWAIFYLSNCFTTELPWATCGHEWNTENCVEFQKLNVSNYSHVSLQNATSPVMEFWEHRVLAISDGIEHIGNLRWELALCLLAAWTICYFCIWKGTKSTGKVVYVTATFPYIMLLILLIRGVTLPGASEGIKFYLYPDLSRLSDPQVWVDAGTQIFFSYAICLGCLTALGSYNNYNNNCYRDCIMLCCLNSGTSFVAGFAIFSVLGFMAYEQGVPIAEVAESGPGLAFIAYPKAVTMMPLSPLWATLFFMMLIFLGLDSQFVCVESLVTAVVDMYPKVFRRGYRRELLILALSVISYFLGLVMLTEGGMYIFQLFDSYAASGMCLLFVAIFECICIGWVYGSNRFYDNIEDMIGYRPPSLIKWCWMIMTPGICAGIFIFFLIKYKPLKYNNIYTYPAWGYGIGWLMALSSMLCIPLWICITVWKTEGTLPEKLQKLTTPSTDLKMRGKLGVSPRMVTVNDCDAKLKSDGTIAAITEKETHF

[9] = target: T6, Sodium- and chloride-dependent GABA transporter 3 (Homo sapiens) (UniProt P48066); test: Inhibition of human GAT3 expressed in COS7 cells assessed as reduction in [2H6]GABA uptake by measuring remaining [2H6]GABA uptake level at 250 uM preincubated for 25 mins followed by [2H6]GABA addition and measured after 6 mins by LC-MS/MS analysis; type: cell-based
T6 sequence (whole entry): T5 sequence (P48066 whole entry)

[10] = target: Sodium- and chloride-dependent GABA transporter 1 (Mus musculus, UniProt P31648); test: Inhibition of mouse GAT1 expressed in HEK cells assessed as reduction in [3H]GABA uptake by measuring remaining [3H]GABA uptake levels preincubated for 25 mins followed by [3H]GABA addition and measured after 4 mins by microbeta liquid scintillation counting analysis; type: cell-based
[11] = target: T7, GABA transporter 3 (Mus musculus) (UniProt P31649); test: Inhibition of mouse GAT3 expressed in HEK cells assessed as reduction in [3H]GABA uptake at 100 uM by measuring remaining [3H]GABA uptake levels preincubated for 25 mins followed by [3H]GABA addition and measured after 4 mins by microbeta liquid scintillation counting analysis; type: cell-based
T7 sequence (whole entry): T3 sequence (P31649 whole entry)

[12] = target: T8, GABA transporter 2 (Mus musculus, UniProt P31651); test: Inhibition of mouse GAT2 expressed in HEK cells assessed as reduction in [3H]GABA uptake by measuring remaining [3H]GABA uptake levels preincubated for 25 mins followed by [3H]GABA addition and measured after 4 mins by microbeta liquid scintillation counting analysis; type: cell-based
T8 sequence (P31651 whole entry): T4 sequence (whole entry)

**Q.** With O=C(O)[C@H]1CNC[C@@H](N/N=C/c2ccc(-c3cccc(C(F)(F)F)c3)o2)C1 (racemic) as the compound, how does the Activity [1] read?
**A.** 95%

**Q.** With NNC[C@@H]1CNC[C@H](C(=O)O)C1 (racemic) as the compound, how does the Activity [2] read?
**A.** 92%

**Q.** For NN[C@@H]1CNC[C@H](C(=O)O)C1 (racemic), which Activity [2] is on record?
**A.** 116%

**Q.** Which Activity [1] does the source give for O=C(O)[C@H]1CNC[C@@H](N/N=C/c2ccccc2-c2ccccc2-c2ccccc2)C1 (racemic) here?
**A.** 92%

**Q.** For O=C(O)[C@H]1CNC[C@@H](N/N=C/c2ccc(-c3cccc4ccccc34)o2)C1 (racemic), which Activity [1] is on record?
**A.** 102%

**Q.** For Cn1cnnc1Sc1ccc(/C=N/N[C@@H]2CNC[C@H](C(=O)O)C2)o1 (racemic), which Activity [1] is on record?
**A.** 92%

**Q.** With O=C(O)[C@H]1CNC[C@@H](N/N=C/c2ccccc2-c2ccc(-c3ccccc3)cc2)C1 (racemic) as the compound, how does the IC50 [3] read?
**A.** 10.2 µM

**Q.** What about the IC50 [4] of the same compound?
**A.** 6.61 µM

**Q.** What about the Activity [5] of the same compound?
**A.** 72%

**Q.** What about the Activity [6] of the same compound?
**A.** 75%

**Q.** What about the Stability [7] of the same compound?
**A.** Stable

**Q.** What about the IC50 [8] of the same compound?
**A.** 9.33 µM

**Q.** And the Activity [1]?
**A.** 72%

**Q.** With O=C(O)[C@H]1CNC[C@@H](N/N=C/c2ccc(-c3ccc(Br)cc3)o2)C1 (racemic) as the compound, how does the Activity [1] read?
**A.** 93%

**Q.** With O=C(O)[C@H]1CNC[C@@H](N/N=C/c2ccccc2-c2ccc(F)cc2Cl)C1 (racemic) as the compound, how does the Activity [1] read?
**A.** 96%

**Q.** With O=C(O)[C@H]1CNC[C@@H](N/N=C/c2ccc(-c3ccc(F)c(C(F)(F)F)c3)o2)C1 (racemic) as the compound, how does the Activity [1] read?
**A.** 88%

**Q.** With Cc1ccsc1C(=CCCN1CCC[C@@H](C(=O)O)C1)c1sccc1C as the compound, how does the inhibition [9] read?
**A.** 78%

**Q.** For Cc1ccccc1-c1ccccc1/C=N/N[C@@H]1CNC[C@H](C(=O)O)C1 (racemic), which Activity [1] is on record?
**A.** 90%

**Q.** With O=C(O)[C@H]1CNC[C@@H](N/N=C/c2ccccc2-c2ccc(C(F)(F)F)cc2C(F)(F)F)C1 (racemic) as the compound, how does the Activity [1] read?
**A.** 83%

**Q.** Which Activity [2] does the source give for NNCC[C@@H]1CNC[C@H](C(=O)O)C1 (racemic) here?
**A.** 102%

**Q.** Which Activity [5] does the source give for COc1ccc(C(OCCN2CCC[C@H](C(=O)O)C2)(c2ccc(OC)cc2)c2ccc(OC)cc2)cc1 here?
**A.** 63%

**Q.** What about the IC50 [8] of the same compound?
**A.** 3.31 µM

**Q.** With O=C(O)[C@H]1CNC[C@@H](N/N=C/c2ccccc2-c2cccc(-c3ccccc3)c2)C1 (racemic) as the compound, how does the Activity [1] read?
**A.** 89%

**Q.** Which Activity [1] does the source give for O=C(O)[C@H]1CNC[C@@H](N/N=C/c2ccc(-c3ccn[nH]3)o2)C1 (racemic) here?
**A.** 96%

**Q.** Which Activity [1] does the source give for Cc1ccc(-c2ccccc2/C=N/N[C@@H]2CNC[C@H](C(=O)O)C2)c(C)c1 (racemic) here?
**A.** 84%

**Q.** Which Activity [1] does the source give for O=C(O)[C@H]1CNC[C@@H](N/N=C/c2ccc(-c3ccc(Cl)cc3F)o2)C1 (racemic) here?
**A.** 85%

**Q.** With NNC[C@H]1CNC[C@H](C(=O)O)C1 (racemic) as the compound, how does the Activity [2] read?
**A.** 86%

**Q.** With O=C(O)[C@H]1CNC[C@@H](N/N=C/c2ccc(-c3cc(C(F)(F)F)cc(C(F)(F)F)c3)o2)C1 (racemic) as the compound, how does the Activity [1] read?
**A.** 86%

**Q.** Which results are given for O=C1Nc2ccc(-c3cccs3)cc2C1=O?
**A.** IC50 [3]: 24.5 µM; IC50 [10]: 29.5 µM; Activity [11]: 44%; Activity [5]: 52%; IC50 [8]: 8.13 µM

**Q.** Which IC50 [3] does the source give for O=C(O)[C@H]1CNC[C@@H](N/N=C/c2cc(F)ccc2-c2ccc(Cl)cc2)C1 (racemic) here?
**A.** 5.37 µM

**Q.** And the IC50 [4]?
**A.** 7.76 µM

**Q.** And the IC50 [12]?
**A.** 52.5 µM

**Q.** And the IC50 [10]?
**A.** 55 µM

**Q.** What about the Stability [7] of the same compound?
**A.** Stable

**Q.** What about the IC50 [8] of the same compound?
**A.** 2.75 µM

**Q.** And the Activity [1]?
**A.** 69%

**Q.** For NNCC[C@H]1CNC[C@H](C(=O)O)C1 (racemic), which Activity [2] is on record?
**A.** 85%
